How the values were obtained:
GSPT1 HiBiT tag protein = GSPT1 HiBiT tag protein (Homo sapiens (Human), UniProt P15170+Q96SW2); assay: hGSPT1 HiBiT assay; assay type: cell-based; conditions: HEK293 hGSPT1 HiBiT cells, 4 hrs incubation; read-out: GSPT1 HiBit EC50
Procedure: hGSPT1 HiBiT cell line. HEK293_hGSPT1_HiBiT tagged cells were generated using CRISPR-Cas12a technology. Briefly, ˜400,000 HEK293 cells were transiently co-transfecting with precomplexed ribonuclear proteins (RNPs) consisting of […] of crRNA (IDT), 62 pmol of Cas12a protein (IDT), 3 ug of ssODN donor (IDT; AltR™ modifications), 78 pmol of electroporation enhancer (IDT), and 200 ng of pMaxGFP (Lonza). The transfection was performed via nucleofection (Lonza, 4D-Nucleofector™ X-unit) using solution P3 and program CM-130 in a small (20 ul) cuvette according to the manufacturer's recommended protocol. Five days post-nucleofection, cells were single cell sorted for GFP+(transfected) cells by FACs in 96-well plates and clonally selected. Clones were screened and verified for the desired modification via targeted deep sequencing using gene specific primers with partial Illumina adapter overhangs as previously described.^58 In brief, clonal cell pellets were harvested, lysed and used to generate gene specific amplicons with partial Illumina adapters in PCR #1. Amplicons were indexed in PCR #2 and pooled with other targeted amplicons for other loci to create sequence diversity. Additionally, 10% PhiX Sequencing Control V3 (Illumina) was added to the pooled amplicon library prior to running the sample on an Miseq Sequencer System (Illumina) to generate paired 2×250 bp reads. […] Editing construct sequences and screening primers are listed below in Table 4.
hGSPT1 HiBiT assay. […] After 4 hrs incubation, the level of GSPT1 HiBiT tag protein was evaluated using Nano-Glo® HiBiT Lytic Detection System (Promega) according to the manufacturer's instruction.

6×His-CRBN-DDB1 protein = 6×His-CRBN-DDB1 protein (Homo sapiens (Human), UniProt Q96SW2); assay: CRBN fluorescence polarization assay; assay type: binding; conditions: cereblon binding, class symbols; read-out: CRBN FP IC50
Sequence of 6×His-CRBN-DDB1 protein (Q96SW2 whole entry): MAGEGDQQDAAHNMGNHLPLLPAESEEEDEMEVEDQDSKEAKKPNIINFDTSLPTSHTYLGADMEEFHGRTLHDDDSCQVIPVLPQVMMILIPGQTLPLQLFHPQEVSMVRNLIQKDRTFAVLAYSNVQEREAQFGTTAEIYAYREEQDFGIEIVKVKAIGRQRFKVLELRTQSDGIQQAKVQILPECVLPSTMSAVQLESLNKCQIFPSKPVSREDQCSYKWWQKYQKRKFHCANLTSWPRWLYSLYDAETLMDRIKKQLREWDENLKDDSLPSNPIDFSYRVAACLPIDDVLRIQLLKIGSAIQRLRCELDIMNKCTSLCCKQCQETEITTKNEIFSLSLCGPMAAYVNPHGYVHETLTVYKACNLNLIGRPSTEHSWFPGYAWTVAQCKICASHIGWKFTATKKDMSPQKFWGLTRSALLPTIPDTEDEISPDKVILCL
Sequence of 6×His-CRBN-DDB1 protein (Q16531 whole entry partner): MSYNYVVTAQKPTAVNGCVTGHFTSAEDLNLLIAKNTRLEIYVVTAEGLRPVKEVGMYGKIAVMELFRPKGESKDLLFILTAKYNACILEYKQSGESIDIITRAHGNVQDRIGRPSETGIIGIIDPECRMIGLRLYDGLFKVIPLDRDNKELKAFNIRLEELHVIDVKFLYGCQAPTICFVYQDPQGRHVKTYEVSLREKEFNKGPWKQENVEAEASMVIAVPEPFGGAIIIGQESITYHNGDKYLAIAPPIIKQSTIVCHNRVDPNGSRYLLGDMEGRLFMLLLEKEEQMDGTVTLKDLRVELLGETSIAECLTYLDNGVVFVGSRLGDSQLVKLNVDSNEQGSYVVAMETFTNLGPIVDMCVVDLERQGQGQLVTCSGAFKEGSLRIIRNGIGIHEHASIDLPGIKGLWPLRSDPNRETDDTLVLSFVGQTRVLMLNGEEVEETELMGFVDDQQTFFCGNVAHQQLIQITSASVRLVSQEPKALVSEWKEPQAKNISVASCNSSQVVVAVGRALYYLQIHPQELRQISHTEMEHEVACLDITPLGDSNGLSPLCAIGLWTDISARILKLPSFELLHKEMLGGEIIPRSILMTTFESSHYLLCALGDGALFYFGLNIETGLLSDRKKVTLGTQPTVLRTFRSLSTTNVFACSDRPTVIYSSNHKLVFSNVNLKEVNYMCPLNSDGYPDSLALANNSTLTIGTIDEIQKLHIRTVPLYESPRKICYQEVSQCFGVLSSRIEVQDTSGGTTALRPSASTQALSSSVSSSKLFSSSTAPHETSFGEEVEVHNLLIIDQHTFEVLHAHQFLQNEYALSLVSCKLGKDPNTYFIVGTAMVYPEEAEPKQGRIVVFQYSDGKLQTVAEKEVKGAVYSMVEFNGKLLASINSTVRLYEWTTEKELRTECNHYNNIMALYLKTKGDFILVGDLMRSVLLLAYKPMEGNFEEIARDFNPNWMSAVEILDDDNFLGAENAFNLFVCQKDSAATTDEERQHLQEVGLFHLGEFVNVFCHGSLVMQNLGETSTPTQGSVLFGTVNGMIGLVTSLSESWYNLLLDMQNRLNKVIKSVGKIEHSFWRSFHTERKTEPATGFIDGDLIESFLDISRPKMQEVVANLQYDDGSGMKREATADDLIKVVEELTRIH
Procedure: 6×His-CRBN-DDB1 protein (200 nM) and Cy5-O-Len probe (30 nM) were combined in 20 mM HEPES pH 7, 150 mM NaCl, 0.005% Tween-20 assay buffer. […] The plates were incubated in the dark for 1 hour at room temperature and then read on an Envision plate reader (PerkinElmer, Massachusetts, USA).

Sequence of GSPT1 HiBiT tag protein (P15170 whole entry): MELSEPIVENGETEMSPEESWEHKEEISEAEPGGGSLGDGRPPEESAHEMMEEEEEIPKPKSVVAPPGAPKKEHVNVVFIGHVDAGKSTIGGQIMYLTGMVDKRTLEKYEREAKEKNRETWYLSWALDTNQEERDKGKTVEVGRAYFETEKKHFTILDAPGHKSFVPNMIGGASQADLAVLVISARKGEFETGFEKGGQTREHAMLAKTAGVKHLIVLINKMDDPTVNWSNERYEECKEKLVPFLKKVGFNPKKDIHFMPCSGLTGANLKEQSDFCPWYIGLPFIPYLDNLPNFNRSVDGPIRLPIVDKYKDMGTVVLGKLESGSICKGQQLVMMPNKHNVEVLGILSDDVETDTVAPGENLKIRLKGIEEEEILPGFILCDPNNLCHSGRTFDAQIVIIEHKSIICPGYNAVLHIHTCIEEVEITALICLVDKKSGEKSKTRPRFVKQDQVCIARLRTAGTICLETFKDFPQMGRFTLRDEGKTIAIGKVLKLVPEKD
Sequence of GSPT1 HiBiT tag protein (Q96SW2 whole entry): as the sequence (Q96SW2 whole entry) above
Sequence of GSPT1 HiBiT tag protein (Q16531 whole entry partner): as the sequence (Q16531 whole entry partner) above

Cc1ccc(F)cc1S(=O)(=O)Nc1ccc2c(c1)C(=O)N(C1CCC(=O)NC1=O)C2=O (stereo not shown) [Compound 75, N-(2-(2,6-dioxopiperidin-3-yl)-1,3-dioxoisoindolin-5-yl)-5-fluoro-2-methylbenzenesulfonamide]
DC50 (GSPT1 HiBiT tag protein): > 10 µM
IC50 (6×His-CRBN-DDB1 protein): < 1000 nM

O=C1CCC(N2C(=O)c3ccc(NS(=O)(=O)c4ccc(C(F)(F)F)cc4)cc3C2=O)C(=O)N1 (stereo not shown) [Compound 8, N-(2-(2,6-dioxopiperidin-3-yl)-1,3-dioxoisoindolin-5-yl)-4-(trifluoromethyl)benzenesulfonamide]
DC50 (GSPT1 HiBiT tag protein): > 10 µM

O=C1CCC(N2C(=O)c3ccc(NS(=O)(=O)c4ccc(F)cc4)cc3C2=O)C(=O)N1 (stereo not shown) [Compound 12, N-(2-(2,6-dioxopiperidin-3-yl)-1,3-dioxoisoindolin-5-yl)-4-fluorobenzenesulfonamide]
DC50 (GSPT1 HiBiT tag protein): > 10 µM
IC50 (6×His-CRBN-DDB1 protein): < 1000 nM

O=C1CCC(N2C(=O)c3ccc(NS(=O)(=O)c4ccc(F)c(F)c4)cc3C2=O)C(=O)N1 (stereo not shown) [Compound 76]
DC50 (GSPT1 HiBiT tag protein): > 10 µM
IC50 (6×His-CRBN-DDB1 protein): 1000 to 10000 nM

O=C1CCC(N2C(=O)c3ccc(NS(=O)(=O)c4ccsc4)cc3C2=O)C(=O)N1 (stereo not shown) [Compound 83, N-(2-(2,6-dioxopiperidin-3-yl)-1,3-dioxoisoindolin-5-yl)thiophene-3-sulfonamide]
DC50 (GSPT1 HiBiT tag protein): > 10 µM
IC50 (6×His-CRBN-DDB1 protein): < 1000 nM

O=C1CCC(N2C(=O)c3ccc(NS(=O)(=O)c4cccc(Cl)c4)cc3C2=O)C(=O)N1 (stereo not shown) [Compound 95, 3-chloro-N-(2-(2,6-dioxopiperidin-3-yl)-1,3-dioxoisoindolin-5-yl)benzenesulfonamide]
DC50 (GSPT1 HiBiT tag protein): > 10 µM
IC50 (6×His-CRBN-DDB1 protein): < 1000 nM

O=C1CCC(N2C(=O)c3ccc(NS(=O)(=O)c4ccc(Cl)c(C(F)(F)F)c4)cc3C2=O)C(=O)N1 (stereo not shown) [Compound 70, 4-chloro-N-(2-(2,6-dioxopiperidin-3-yl)-1,3-dioxoisoindolin-5-yl)-3-(trifluoromethyl)benzenesulfonamide]
DC50 (GSPT1 HiBiT tag protein): > 10 µM

O=C1CCC(N2C(=O)c3ccc(NS(=O)(=O)c4ccccc4-c4ccccc4)cc3C2=O)C(=O)N1 (stereo not shown) [Compound 81, N-(2-(2,6-dioxopiperidin-3-yl)-1,3-dioxoisoindolin-5-yl)-[1,1′-biphenyl]-2-sulfonamide]
DC50 (GSPT1 HiBiT tag protein): > 10 µM
IC50 (6×His-CRBN-DDB1 protein): < 1000 nM

O=C1CCC(N2C(=O)c3ccc(NS(=O)(=O)Cc4ccccc4)cc3C2=O)C(=O)N1 (stereo not shown) [Compound 9, N-(2-(2,6-dioxopiperidin-3-yl)-1,3-dioxoisoindolin-5-yl)-1-phenylmethanesulfonamide]
DC50 (GSPT1 HiBiT tag protein): > 10 µM
IC50 (6×His-CRBN-DDB1 protein): 1000 to 10000 nM

O=C1CCC(N2C(=O)c3ccc(NS(=O)(=O)c4cccs4)cc3C2=O)C(=O)N1 (stereo not shown) [Compound 18, N-(2-(2,6-dioxopiperidin-3-yl)-1,3-dioxoisoindolin-5-yl)thiophene-2-sulfonamide]
DC50 (GSPT1 HiBiT tag protein): > 10 µM
IC50 (6×His-CRBN-DDB1 protein): < 1000 nM

Cc1ccccc1CS(=O)(=O)Nc1ccc2c(c1)C(=O)N(C1CCC(=O)NC1=O)C2=O (stereo not shown) [Compound 90, N-(2-(2,6-dioxopiperidin-3-yl)-1,3-dioxoisoindolin-5-yl)-1-(o-tolyt)methanesulfonamide]
DC50 (GSPT1 HiBiT tag protein): > 10 µM
IC50 (6×His-CRBN-DDB1 protein): 1000 to 10000 nM

O=C1CCC(N2C(=O)c3ccc(NS(=O)(=O)c4ccccc4Br)cc3C2=O)C(=O)N1 (stereo not shown) [Compound 98, 2-bromo-N-(2-(2,6-dioxopiperidin-3-yl)-1,3-dioxoisoindolin-5-yl)benzenesulfonamide]
DC50 (GSPT1 HiBiT tag protein): < 1 µM
IC50 (6×His-CRBN-DDB1 protein): < 1000 nM

Cc1ccc(S(=O)(=O)Nc2ccc3c(c2)CN(C2CCC(=O)NC2=O)C3=O)cc1Cl (stereo not shown) [Compound 52, 3-chloro-N-(2-(2,6-dioxopiperidin-3-yl)-1-oxoisoindolin-5-yl)-4-methylbenzenesulfonamide]
IC50 (6×His-CRBN-DDB1 protein): < 1000 nM

O=C1CCC(N2Cc3ccc(NS(=O)(=O)c4cccc(C(F)(F)F)c4)cc3C2=O)C(=O)N1 (stereo not shown) [Compound 32, N-(2-(2,6-dioxopiperidin-3-yl)-3-oxoisoindolin-5-yl)-3-(trifluoromethyl)benzenesulfonamide]
IC50 (6×His-CRBN-DDB1 protein): < 1000 nM

O=C1CCC(N2Cc3ccc(NS(=O)(=O)c4ccccc4OC(F)(F)F)cc3C2=O)C(=O)N1 (stereo not shown) [Compound 37, N-(2-(2,6-dioxopiperidin-3-yl)-3-oxoisoindolin-5-yl)-2-(trifluoromethoxy)benzenesulfonamide]
IC50 (6×His-CRBN-DDB1 protein): < 1000 nM

O=C1CCC(N2Cc3cc(NS(=O)(=O)c4ccccc4C(F)(F)F)ccc3C2=O)C(=O)N1 (stereo not shown) [Compound 44, N-(2-(2,6-dioxopiperidin-3-yl)-1-oxoisoindolin-5-yl)-2-(trifluoromethyl)benzenesulfonamide]
IC50 (6×His-CRBN-DDB1 protein): < 1000 nM

O=C1CCC(N2C(=O)c3ccc(NS(=O)(=O)c4ccc5ncsc5c4)cc3C2=O)C(=O)N1 (stereo not shown) [Compound 86, N-(2-(2,6-dioxopiperidin-3-yl)-1,3-dioxoisoindolin-5-yl)benzo[d]thiazole-6-sulfonamide]
IC50 (6×His-CRBN-DDB1 protein): < 1000 nM

Cc1cc(C)c(S(=O)(=O)Nc2ccc3c(c2)C(=O)N(C2CCC(=O)NC2=O)C3=O)c(C)c1 (stereo not shown) [Compound 68, N-(2-(2,6-dioxopiperidin-3-yl)-1,3-dioxoisoindolin-5-yl)-2,4,6-trimethylbenzenesulfonamide]
IC50 (6×His-CRBN-DDB1 protein): < 1000 nM

CC(C)(C)c1ccc(S(=O)(=O)Nc2ccc3c(c2)CN(C2CCC(=O)NC2=O)C3=O)cc1 (stereo not shown) [Compound 46, 4-(tert-butyl)-N-(2-(2,6-dioxopiperidin-3-yl)-1-oxoisoindolin-5-yl)benzenesulfonamide]
IC50 (6×His-CRBN-DDB1 protein): < 1000 nM

COc1cccc(S(=O)(=O)Nc2ccc3c(c2)CN(C2CCC(=O)NC2=O)C3=O)c1 (stereo not shown) [Compound 47, N-(2-(2,6-dioxopiperidin-3-yl)-1-oxoisoindolin-5-yl)-3-methoxybenzenesulfonamide]
IC50 (6×His-CRBN-DDB1 protein): < 1000 nM

COc1cccc(S(=O)(=O)Nc2ccc3c(c2)C(=O)N(C2CCC(=O)NC2=O)C3)c1 (stereo not shown) [Compound 29, N-(2-(2,6-dioxopiperidin-3-yl)-3-oxoisoindolin-5-yl)-3-methoxybenzenesulfonamide]
IC50 (6×His-CRBN-DDB1 protein): < 1000 nM

O=C1CCC(N2Cc3ccc(NS(=O)(=O)c4ccccc4)cc3C2=O)C(=O)N1 (stereo not shown) [Compound 22, N-(2-(2,6-dioxopiperidin-3-yl)-3-oxoisoindolin-5-yl)benzenesulfonamide]
IC50 (6×His-CRBN-DDB1 protein): < 1000 nM

O=C1CCC(N2Cc3cc(NS(=O)(=O)c4ccc(-c5ccccc5)cc4)ccc3C2=O)C(=O)N1 (stereo not shown) [Compound 51, N-(2-(2,6-dioxopiperidin-3-yl)-1-oxoisoindolin-5-yl)-[1,1′-bipheny]-4-sulfonamide]
IC50 (6×His-CRBN-DDB1 protein): < 1000 nM

O=C1CCC(N2Cc3cc(NS(=O)(=O)c4ccccc4)ccc3C2=O)C(=O)N1 (stereo not shown) [Compound 38, N-(2-(2,6-dioxopiperidin-3-yl)-1-oxoisoindolin-5-yl)benzenesulfonamide]
IC50 (6×His-CRBN-DDB1 protein): 1000 to 10000 nM

O=C1CCC(N2C(=O)c3ccc(NS(=O)(=O)c4ccco4)cc3C2=O)C(=O)N1 (stereo not shown) [Compound 91, N-(2-(2,6-dioxopiperidin-3-yl)-1,3-dioxoisoindolin-5-yl)furan-2-sulfonamide]
IC50 (6×His-CRBN-DDB1 protein): < 1000 nM

O=C1CCC(N2Cc3ccc(NS(=O)(=O)c4ccccc4C(F)(F)F)cc3C2=O)C(=O)N1 (stereo not shown) [Compound 28, N-(2-(2,6-dioxopiperidin-3-yl)-3-oxoisoindolin-5-yl)-2-(trifluoromethyl)benzenesulfonamide]
IC50 (6×His-CRBN-DDB1 protein): < 1000 nM

O=C1CCC(N2C(=O)c3ccc(NS(=O)(=O)Cc4ccc(Cl)cc4)cc3C2=O)C(=O)N1 (stereo not shown) [Compound 57, 1-(4-chlorophenyl)-N-(2-(2,6-dioxopiperidin-3-yl)-1,3-dioxoisoindolin-5-yi)methanesulfonamide]
IC50 (6×His-CRBN-DDB1 protein): < 1000 nM
